Measured values reported in PMC6547681 (Nature Communications, 2019).
Where “and” joins values, the source holds several entries; their conditions need not be identical. Equal values may be shown once. Read-outs that look alike come from different tables or passages of the source.

Test system: BCL-2 WT
Test: Steady-state competition SPR against immobilised BIMBH3 peptide, BCL-2 WT
Type: binding, human
Conditions: for Ki: BCL-2 WT
Experimental: SPR experiments were performed as previously described. […] The lowest concentrations used in direct binding experiments were 1 nM for BIAcore 4000 and 0.1 nM for BIAcore S200 instruments, concentrations below these were below the sensitivity thresholds for the instruments. […] Direct binding experiments were fitted to a 1:1 binding site kinetic model, fitting on and off rates, in BIAevaluation software. For competition experiments steady-state responses were determined in BIAevaluation software according to the software defaults in affinity evaluation mode averaging responses for 5 sec. […] All affinity measurements were performed in at least two independent experiments using independent protein preparations.

## O=C(c1cc(-c2cc3c(cc2C(=O)N2Cc4ccccc4C[C@H]2CN2CCOCC2)OCO3)n2c1CCCC2)N(c1ccccc1)c1ccc(O)cc1 [S55746]
S55746 concentration 40, BCL-2 concentration 40 nM, independent experiment 2
  Raw data values in Figure 3f (SPR response): 135.922
S55746 concentration 40, BCL-2 concentration 40 nM, independent experiment 3
  Raw data values in Figure 3f (SPR response): 43.3243
S55746 concentration 40, BCL-2 concentration 50 nM, independent experiment 1
  Raw data values in Figure 3f (SPR response): 78.7968
S55746 concentration 40, BCL-2 concentration 50 nM, independent experiment 3
  Raw data values in Figure 3f (SPR response): 49.1674
S55746 concentration 40, BCL-2 concentration 60 nM, independent experiment 1
  Raw data values in Figure 3f (SPR response): 84.5822
S55746 concentration 40, BCL-2 concentration 60 nM, independent experiment 3
  Raw data values in Figure 3f (SPR response): 58.6901
S55746 concentration 40, BCL-2 concentration 70 nM, independent experiment 1
  Raw data values in Figure 3f (SPR response): 88.5391
S55746 concentration 40, BCL-2 concentration 70 nM, independent experiment 3
  Raw data values in Figure 3f (SPR response): 64.9952
S55746 concentration 40, BCL-2 concentration 80 nM, independent experiment 1
  Raw data values in Figure 3f (SPR response): 89.9035
S55746 concentration 40, BCL-2 concentration 80 nM, independent experiment 3
  Raw data values in Figure 3f (SPR response): 69.0967
S55746 concentration 40, BCL-2 concentration 100 nM, independent experiment 1
  Raw data values in Figure 3f (SPR response): 92.2307
S55746 concentration 40, BCL-2 concentration 100 nM, independent experiment 3
  Raw data values in Figure 3f (SPR response): 75.0006
S55746 concentration 40, BCL-2 concentration 150 nM, independent experiment 1
  Raw data values in Figure 3f (SPR response): 94.9838
S55746 concentration 40, BCL-2 concentration 150 nM, independent experiment 3
  Raw data values in Figure 3f (SPR response): 84.1638
S55746 concentration 40, BCL-2 concentration 200 nM, independent experiment 1
  Raw data values in Figure 3f (SPR response): 96.8989
S55746 concentration 40, BCL-2 concentration 200 nM, independent experiment 3
  Raw data values in Figure 3f (SPR response): 89.8321
S55746 concentration 60, BCL-2 concentration 10 nM, independent experiment 1
  Raw data values in Figure 3f (SPR response): 3.3753
S55746 concentration 60, BCL-2 concentration 10 nM, independent experiment 3
  Raw data values in Figure 3f (SPR response): 1.1233
S55746 concentration 60, BCL-2 concentration 20 nM, independent experiment 1
  Raw data values in Figure 3f (SPR response): 7.929
S55746 concentration 60, BCL-2 concentration 20 nM, independent experiment 3
  Raw data values in Figure 3f (SPR response): 2.648
S55746 concentration 60, BCL-2 concentration 30 nM, independent experiment 1
  Raw data values in Figure 3f (SPR response): 13.853
S55746 concentration 60, BCL-2 concentration 30 nM, independent experiment 3
  Raw data values in Figure 3f (SPR response): 4.966
S55746 concentration 60, BCL-2 concentration 40 nM, independent experiment 1
  Raw data values in Figure 3f (SPR response): 26.5524
S55746 concentration 60, BCL-2 concentration 40 nM, independent experiment 3
  Raw data values in Figure 3f (SPR response): 9.938
S55746 concentration 60, BCL-2 concentration 50 nM, independent experiment 1
  Raw data values in Figure 3f (SPR response): 51.4643
S55746 concentration 60, BCL-2 concentration 50 nM, independent experiment 3
  Raw data values in Figure 3f (SPR response): 23.6574
S55746 concentration 60, BCL-2 concentration 60 nM, independent experiment 1
  Raw data values in Figure 3f (SPR response): 75.6075
S55746 concentration 60, BCL-2 concentration 60 nM, independent experiment 3
  Raw data values in Figure 3f (SPR response): 44.7291
S55746 concentration 60, BCL-2 concentration 70 nM, independent experiment 1
  Raw data values in Figure 3f (SPR response): 83.0032
S55746 concentration 60, BCL-2 concentration 70 nM, independent experiment 3
  Raw data values in Figure 3f (SPR response): 55.5781
S55746 concentration 60, BCL-2 concentration 80 nM, independent experiment 1
  Raw data values in Figure 3f (SPR response): 87.1926
S55746 concentration 60, BCL-2 concentration 80 nM, independent experiment 3
  Raw data values in Figure 3f (SPR response): 62.5167
S55746 concentration 60, BCL-2 concentration 100 nM, independent experiment 1
  Raw data values in Figure 3f (SPR response): 90.81
S55746 concentration 60, BCL-2 concentration 100 nM, independent experiment 3
  Raw data values in Figure 3f (SPR response): 70.2062
S55746 concentration 60, BCL-2 concentration 150 nM, independent experiment 1
  Raw data values in Figure 3f (SPR response): 94.4799
S55746 concentration 60, BCL-2 concentration 150 nM, independent experiment 3
  Raw data values in Figure 3f (SPR response): 81.267
S55746 concentration 60, BCL-2 concentration 200 nM, independent experiment 1
  Raw data values in Figure 3f (SPR response): 96.2757
S55746 concentration 60, BCL-2 concentration 200 nM, independent experiment 3
  Raw data values in Figure 3f (SPR response): 87.9958
S55746 concentration 80, BCL-2 concentration 1 nM, independent experiment 2
  Raw data values in Figure 3f (SPR response): 1.2215
S55746 concentration 80, BCL-2 concentration 3 nM, independent experiment 2
  Raw data values in Figure 3f (SPR response): 2.493
S55746 concentration 80, BCL-2 concentration 4 nM, independent experiment 2
  Raw data values in Figure 3f (SPR response): 3.639
S55746 concentration 80, BCL-2 concentration 6 nM, independent experiment 2
  Raw data values in Figure 3f (SPR response): 4.673
S55746 concentration 80, BCL-2 concentration 8 nM, independent experiment 2
  Raw data values in Figure 3f (SPR response): 5.6951
S55746 concentration 80, BCL-2 concentration 9 nM, independent experiment 2
  Raw data values in Figure 3f (SPR response): 6.782
S55746 concentration 80, BCL-2 concentration 11 nM, independent experiment 2
  Raw data values in Figure 3f (SPR response): 7.791
S55746 concentration 80, BCL-2 concentration 12 nM, independent experiment 2
  Raw data values in Figure 3f (SPR response): 8.945
S55746 concentration 80, BCL-2 concentration 16 nM, independent experiment 2
  Raw data values in Figure 3f (SPR response): 11.2715
S55746 concentration 80, BCL-2 concentration 24 nM, independent experiment 2
  Raw data values in Figure 3f (SPR response): 17.5573
S55746 concentration 80, BCL-2 concentration 40 nM, independent experiment 2
  Raw data values in Figure 3f (SPR response): 30.3087
read-out: S55746 KI (mean), competition vs BIMBH3 SPR surface, mean ± SD, n ≥ 2
  Ki: 0.36 nM and 0.356 nM
read-out: S55746 KI, single independent experiments, independent experiments 1-3
  Ki: 0.358 nM and 0.372 nM and 0.338 nM
